Legend:
B834(DE3)/pQE15/pREP4 = assay: Translational activity: mDHFR synthesis in control host; type: cell-based, E. coli
Description: (§1) Plasmid DNA from all B834(DE3)/pQE15-MRS/pREP4 cultures used for protein expression experiments was sequenced to confirm that it encoded wild-type MetRS. […] The expression plasmid also encodes an N-terminal hexahistidine sequence for mDHFR which permits purification of the target protein by immobilized metal chelate affinity chromatography (The Qiagen Expressionist, 1992, p. 45). Furthermore, mDHFR contains 8 methionine residues which can be replaced by methionine analogues. A control bacterial host, which produces only mDHFR and normal cellular levels of MetRS, was prepared by transforming B834(DE3) with pREP4 and pQE15.
Methionine analogues were synthesized via alkylation of diethylacetamidomalonate, as previously described (As described in Example I, infra; J. C. M. van Hest, D. A. Tirrell, FEBS Lett. 1998, 428, 68-70). […]
Cells were washed three times with M9 salts and resuspended to an optical density of 0.90 in M9 test media containing 19 amino acids plus 1) neither methionine nor analogue (negative control); 2) methionine (60 mg/liter, positive control); or 3) an analogue of interest (60 mg/liter). […] Expression of mDHFR was induced by addition of 0.4 mM isopropyl β-D-thiogalactopyranoside (IPTG), and protein synthesis was monitored after 4.5 hours.

[1] = tested on: B834(DE3)/pQE15-MRS/pREP4; type: cell-based, E. coli
Description: A gene encoding a mutant MetRS was removed from plasmid pBSM547W305F (D. Fourmy, Y. Mechulam, S. Brunie, S. Blanquet, G. Fayat, FEBS Lett. 1991, 292, 259-263) by treatment with restriction enzymes Sac I and Kpn I. The Sac I/Kpn I fragment (2450 bp) was ligated into the cloning vector pUC19-Nhelink, which was constructed to permit the cohesive ends of the mutant MetRS gene to be changed to Nhe I. The MetRS gene with Nhe I cohesive ends was then ligated into the unique Nhe I site of the plasmid pQE15 (Qiagen, Inc., Santa Clarita, Calif., USA) to yield plasmid pQE15-W305F (FIG. 20) (SEQ ID NO.: 2).
as §1
(§2) Methionine analogues were synthesized via alkylation of diethylacetamidomalonate, as previously described (As described in Example I, infra; J. C. M. van Hest, D. A. Tirrell, FEBS Lett. 1998, 428, 68-70). Cultures of B834(DE3)/pQE15-MRS/pREP4 or B834(DE3)/pQE15/pREP4 or CAG18491/pQE15-MRS/pREP4 or CAG18491/pQE15/pREP4 in M9AA media were grown to an optical density of 0.90, and the cells were sedimented by centrifugation. The M9AA medium was prepared by supplementing sterile M9 medium with […] of each of the amino acids, 1 mM MgSO4, 0.2 wt % glucose, 1 mg/ml thiamine chloride, and […] calcium chloride. The antibiotics ampicillin and kanamycin were added at concentrations of 200 mg/l and 35 mg/l, respectively.
(§3) Cells were washed three times with M9 salts and resuspended to an optical density of 0.90 in M9 test media containing 19 amino acids plus 1) neither methionine nor analogue (negative control); 2) methionine (60 mg/liter, positive control); or 3) an analogue of interest (60 mg/liter). To test the effect of increasing the level of supplementation of the analogues, a set of experiments was also conducted in which the medium was supplemented with 500 mg/liter of methionine or the amino acid analogue. Expression of mDHFR was induced by addition of 0.4 mM isopropyl β-D-thiogalactopyranoside (IPTG), and protein synthesis was monitored after 4.5 hours.

[2] = tested on: B834(DE3) or CAG18491 hosts with pQE15/pREP4 or pQE15-MRS/pREP4; assay: Translational activity: mDHFR synthesis, statements covering several bacterial hosts (with pQE15 or pQE15-MRS); type: cell-based, E. coli; conditions: for translational activity / incorporation in hosts with increased MetRS activity: hosts overproducing MetRS; for target protein mDHFR in SDS-PAGE: amino acids at 60 mg/liter, both bacterial hosts
Experimental: as §2, §3

[3] = tested on: E. coli strain CAG18491/pQE15/pREP4; assay: Translational activity: mDHFR synthesis in methionine-depleted cultures of conventional host; type: cell-based; conditions: analogue in place of methionine at the time of inoculation
E. coli cells = conditions: antagonist for methionine; cited from earlier work
[4] = target: T1, methionyl tRNA synthetase (MetRS) (Escherichia coli, UniProt P00959); conditions: cited from earlier work
T1 sequence (P00959 1-548 limits assumed): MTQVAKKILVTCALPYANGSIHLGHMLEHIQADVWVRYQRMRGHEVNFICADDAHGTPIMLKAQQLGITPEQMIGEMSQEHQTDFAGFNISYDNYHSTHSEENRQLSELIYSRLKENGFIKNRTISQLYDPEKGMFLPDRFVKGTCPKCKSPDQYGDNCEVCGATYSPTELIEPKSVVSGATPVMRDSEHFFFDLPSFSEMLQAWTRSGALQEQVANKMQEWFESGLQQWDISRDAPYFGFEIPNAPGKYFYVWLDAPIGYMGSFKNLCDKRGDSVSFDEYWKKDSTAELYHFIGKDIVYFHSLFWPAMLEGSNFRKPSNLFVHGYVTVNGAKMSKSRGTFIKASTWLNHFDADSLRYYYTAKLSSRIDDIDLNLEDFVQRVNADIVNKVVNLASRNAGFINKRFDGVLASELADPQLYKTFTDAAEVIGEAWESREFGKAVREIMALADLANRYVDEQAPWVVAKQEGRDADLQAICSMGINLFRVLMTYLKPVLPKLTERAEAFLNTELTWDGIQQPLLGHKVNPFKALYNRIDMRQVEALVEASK

Compound	translational activity / incorporation in hosts with increased MetRS activity [2]	target protein mDHFR in SDS-PAGE [2]	also measured
C/C=C/CC(N)C(=O)O (racemic) [Analogue 5, trans-2-amino-4-hexenoic acid]	permits incorporation		mDHFR expression (SDS-PAGE) (B834(DE3)/pQE15/pREP4; 60 mg/L): not detected; incorporation of the analogue at the initiator position (N-terminal sequencing) [1]: 96±2%; mDHFR produced relative to cultures supplemented with methionine [1]: 23%; overall extent of incorporation of the analogue (amino acid analysis) [1]: 91±2%; replacement of methionine (integration of NMR spectrum) [1]: 90±6%; mDHFR expression (SDS-PAGE) ([1]; 60 mg/L): strong induction of mDHFR; methionine content by amino acid analysis ([1]; expected value 3.8 mol %): 0.3 mol %
C=CCCC(N)C(=O)O (racemic) [Analogue 2, DL-2-amino-5-hexenoic acid]		detected	growth of cultures in minimal media with methionine replaced by analogue at inoculation [3]: did not grow
CCC[C@H](N)C(=O)O [Analogue 8, L-norvaline]	permits incorporation	not observed	
2-butynylglycine [Analogue 11]	permits incorporation		
C/C=C\CC(N)C(=O)O (racemic) [Analogue 4, cis-2-amino-4-hexenoic acid]	permits incorporation	not observed	effect on growth of E. coli cells (E. coli cells): inhibiting the growth
CCCC[C@H](N)C(=O)O [Analogue 9, L-norleucine]		detected	
C=CCC(N)C(=O)O (stereo not shown) [Analogue 12, allylglycine]	permits incorporation	not observed	
CSCC[C@H](N)C(=O)O [Analogue 1, L-methionine, reference compound]		detected	Protein yields (B834(DE3)/pQE15/pREP4; supplemented cultures): approximately 35 mg/liter; Protein yields ([1]; supplemented cultures): approximately 35 mg/liter; kcat, literature value [4]: 13.5 s⁻¹; Km ([4]; read-out: Km, previously reported, literature value): 24 ± 2 µM
C#CCCC(N)C(=O)O (racemic) [Analogue 3, DL-homopropargylglycine]		detected	growth of cultures in minimal media with methionine replaced by analogue at inoculation [3]: did not grow
CCCCCC(N)C(=O)O (racemic) [Analogue 7, DL-2-aminoheptanoic acid]	permits incorporation	not observed	

From patent publication US7723070B2, “Overexpression of aminoacyl-tRNA synthetases for efficient production of engineered proteins containing amino acid analogues” (California Institute of Technology, priority 2000, dated 2010)
